From ChEMBL document CHEMBL5149969, “Amyloid-β and tau aggregation dual-inhibitors: A synthetic and structure-activity relationship focused review” (Eur J Med Chem, 2021)

Target: T1, Microtubule-associated protein tau (Homo sapiens, UniProt P10636)
Assay: Inhibition of tau (unknown origin) transfected in human H4 cells incubated for 20 to 24 hrs by LPECL assay
Assay type: cell-based

T1 sequence (P10636 whole entry): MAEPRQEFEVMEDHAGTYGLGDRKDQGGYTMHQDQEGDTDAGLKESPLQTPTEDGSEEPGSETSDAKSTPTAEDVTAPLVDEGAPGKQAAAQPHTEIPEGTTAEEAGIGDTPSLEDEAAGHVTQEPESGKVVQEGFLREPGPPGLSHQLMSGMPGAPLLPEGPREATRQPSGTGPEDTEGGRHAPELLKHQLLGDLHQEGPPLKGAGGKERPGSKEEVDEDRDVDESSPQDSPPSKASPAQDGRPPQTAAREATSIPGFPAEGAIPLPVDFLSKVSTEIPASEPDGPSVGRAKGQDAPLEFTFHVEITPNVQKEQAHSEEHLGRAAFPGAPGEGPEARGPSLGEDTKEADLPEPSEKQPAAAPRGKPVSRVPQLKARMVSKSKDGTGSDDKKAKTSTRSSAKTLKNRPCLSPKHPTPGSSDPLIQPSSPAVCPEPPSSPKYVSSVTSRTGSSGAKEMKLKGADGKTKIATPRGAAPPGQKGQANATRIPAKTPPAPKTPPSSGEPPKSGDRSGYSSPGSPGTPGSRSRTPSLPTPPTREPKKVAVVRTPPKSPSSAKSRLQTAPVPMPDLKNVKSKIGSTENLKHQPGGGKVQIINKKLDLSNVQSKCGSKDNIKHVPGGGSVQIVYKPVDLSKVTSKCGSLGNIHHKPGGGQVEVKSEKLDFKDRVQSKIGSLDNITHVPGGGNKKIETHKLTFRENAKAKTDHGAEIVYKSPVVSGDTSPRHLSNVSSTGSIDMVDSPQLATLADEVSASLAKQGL

| Compound | IC50 [µM] |
| --- | --- |
| COc1cc(/C=C/c2cc(/C=C/c3ccc(O)c(OC)c3)on2)ccc1O | > 200 |
| COc1cc(/C=C/c2cc(/C=C/c3ccc(O)c(OC)c3)n(Cc3ccccc3)n2)ccc1O | 35 |
| COc1cc(/C=C/c2cc(/C=C/c3ccc(OCC(=O)O)c(OC)c3)on2)ccc1OCC(=O)O | > 200 |
| COc1cc(/C=C/c2cc(/C=C/c3ccc(O)c(OC)c3)n(-c3ccc(Cl)nn3)n2)ccc1O | 54 |
| COc1cc(/C=C/c2cc(/C=C/c3ccc(O)c(OC)c3)n(-c3ccc([N+](=O)[O-])cc3)n2)ccc1O | 1.2 |
| COc1cc(/C=C/c2cc(/C=C/c3ccc(O)c(OC)c3)n(C)n2)ccc1O | 13 |
| COc1cc(/C=C/c2cc(/C=C/c3ccc(OCC(=O)OC(C)(C)C)c(OC)c3)on2)ccc1OCC(=O)OC(C)(C)C | > 200 |
| COc1cc(/C=C/c2cc(/C=C/c3ccc(O)c(OC)c3)[nH]n2)ccc1O [CURCUMIN PYRAZOLE] | 34 |
| COc1cc(/C=C/c2cc(/C=C/c3ccc(O)c(OC)c3)n(-c3ccccc3)n2)ccc1O | 103 |
| COc1cc(/C=C/c2cc(/C=C/c3ccc(O)c(OC)c3)n(-c3ccc(C(C)C)cc3)n2)ccc1O | 18 |
| COc1cc(/C=C/c2cc(/C=C/c3ccc(O)c(OC)c3)n(-c3cccc([N+](=O)[O-])c3)n2)ccc1O | 5 |
| COc1cc(/C=C/c2cc(/C=C/c3ccc(O)c(OC)c3)n(-c3cc(Cl)cc(Cl)c3)n2)ccc1O | 10 |
| COc1cc(/C=C/c2cc(/C=C/c3ccc(O)c(OC)c3)n(-c3ccc(C)cc3)n2)ccc1O | 35 |
| COc1cc(/C=C/c2cc(/C=C/c3ccc(O)c(OC)c3)n(CCO)n2)ccc1O | 69 |

Target: T2, Amyloid-beta precursor protein (Homo sapiens, UniProt P05067)
T2 sequence (P05067 whole entry): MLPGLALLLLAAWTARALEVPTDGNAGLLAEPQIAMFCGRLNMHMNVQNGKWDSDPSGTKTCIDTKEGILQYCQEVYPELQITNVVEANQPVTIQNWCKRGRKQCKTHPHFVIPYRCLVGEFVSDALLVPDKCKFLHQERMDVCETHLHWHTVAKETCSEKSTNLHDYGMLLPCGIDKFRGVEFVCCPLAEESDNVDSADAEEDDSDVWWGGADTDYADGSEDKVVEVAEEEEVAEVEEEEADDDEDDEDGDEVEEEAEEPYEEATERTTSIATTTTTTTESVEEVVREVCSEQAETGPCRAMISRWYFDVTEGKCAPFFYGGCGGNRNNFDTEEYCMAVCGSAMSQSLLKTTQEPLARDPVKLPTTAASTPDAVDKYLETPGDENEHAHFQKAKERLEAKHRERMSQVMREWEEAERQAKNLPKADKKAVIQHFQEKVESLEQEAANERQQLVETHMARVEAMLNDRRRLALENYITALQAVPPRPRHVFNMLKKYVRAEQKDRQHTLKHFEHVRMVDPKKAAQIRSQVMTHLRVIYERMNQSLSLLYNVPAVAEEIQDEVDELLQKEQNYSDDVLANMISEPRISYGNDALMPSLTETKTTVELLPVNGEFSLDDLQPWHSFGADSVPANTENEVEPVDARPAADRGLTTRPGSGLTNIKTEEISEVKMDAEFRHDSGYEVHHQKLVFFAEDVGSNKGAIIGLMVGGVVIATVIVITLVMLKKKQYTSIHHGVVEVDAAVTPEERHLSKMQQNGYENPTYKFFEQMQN
Assay: Inhibition of amyloid beta 42 (unknown origin) expressed in Escherichia coli BL21 (DE3) at 10 uM relative to control

| Compound | inhibition [%] |
| --- | --- |
| Cc1c(OCc2ccccc2)cccc1N1CCN(CCCNCc2ccccc2)CC1 | 64.9 |
| O=S(=O)(c1ccccc1)n1ccc2c(N3CCN(CCN4CCN(Cc5cccc6c5ccn6Cc5ccccc5)CC4)CC3)cccc21 | 64.8 |
| O=S(=O)(c1ccccc1)n1ccc2c(N3CCN(CCCCCCNC4CCN(Cc5ccccc5)CC4)CC3)cccc21 | 61.8 |
| Cc1c(OCc2ccccc2)cccc1N1CCN(CCCCCCCNc2c3c(nc4ccccc24)CCCC3)CC1 | 67.4 |
| Cc1c(OCc2ccccc2)cccc1N1CCN(CCNc2c3c(nc4ccccc24)CCCC3)CC1 | 55.7 |
| Cc1c(OCc2ccccc2)cccc1N1CCN(CCCCCCCCNc2c3c(nc4ccccc24)CCCC3)CC1 | 66.7 |
| Cc1c(OCc2ccccc2)cccc1N1CCN(CCCCCCNc2c3c(nc4ccccc24)CCCC3)CC1 | 66.9 |
| Cc1c(OCc2ccccc2)cccc1N1CCN(CCCCCCNCc2ccccc2)CC1 | 64.2 |
| Cc1c(OCc2ccccc2)cccc1N1CCN(CCNC2CCN(Cc3ccccc3)CC2)CC1 | 54.1 |
| Cc1c(OCc2ccccc2)cccc1N1CCN(CCCCNC2CCN(Cc3ccccc3)CC2)CC1 | 62 |
| Cc1c(OCc2ccccc2)cccc1N1CCN(CCCNC2CCN(Cc3ccccc3)CC2)CC1 | 55.7 |
| c1ccc(Cn2ccc3c(N4CCN(CCCCNc5c6c(nc7ccccc57)CCCC6)CC4)cccc32)cc1 | 57.7 |

Target: T2, Amyloid-beta precursor protein
Assay: Inhibition of amyloid beta 42 (unknown origin) at 20 uM relative to control

| Compound | inhibition [%] |
| --- | --- |
| C[n+]1c2c(c(N)c3ccccc31)C(=O)/C(=C/c1cccc([N+](=O)[O-])c1)CC2 | 86.4 |

Target: T1, Microtubule-associated protein tau
Assay: Inhibition of tau depolymerization (unknown origin) transfected in H4 cells incubated for 20 to 24 hrs by LPECL assay
Assay type: cell-based

| Compound | DC50 [µM] |
| --- | --- |
| COc1cc(/C=C/c2cc(/C=C/c3ccc(O)c(OC)c3)on2)ccc1O | > 200 |
| COc1cc(/C=C/c2cc(/C=C/c3ccc(O)c(OC)c3)n(Cc3ccccc3)n2)ccc1O | 73 |
| COc1cc(/C=C/c2cc(/C=C/c3ccc(OCC(=O)O)c(OC)c3)on2)ccc1OCC(=O)O | > 200 |
| COc1cc(/C=C/c2cc(/C=C/c3ccc(O)c(OC)c3)n(-c3ccc(Cl)nn3)n2)ccc1O | 46 |
| COc1cc(/C=C/c2cc(/C=C/c3ccc(O)c(OC)c3)n(-c3ccc([N+](=O)[O-])cc3)n2)ccc1O | 1.1 |
| COc1cc(/C=C/c2cc(/C=C/c3ccc(O)c(OC)c3)n(C)n2)ccc1O | 8 |
| COc1cc(/C=C/c2cc(/C=C/c3ccc(OCC(=O)OC(C)(C)C)c(OC)c3)on2)ccc1OCC(=O)OC(C)(C)C | > 200 |
| COc1cc(/C=C/c2cc(/C=C/c3ccc(O)c(OC)c3)[nH]n2)ccc1O [CURCUMIN PYRAZOLE] | 17 |
| COc1cc(/C=C/c2cc(/C=C/c3ccc(O)c(OC)c3)n(-c3ccccc3)n2)ccc1O | 73 |
| COc1cc(/C=C/c2cc(/C=C/c3ccc(O)c(OC)c3)n(-c3ccc(C(C)C)cc3)n2)ccc1O | 190 |
| COc1cc(/C=C/c2cc(/C=C/c3ccc(O)c(OC)c3)n(-c3cccc([N+](=O)[O-])c3)n2)ccc1O | 4 |
| COc1cc(/C=C/c2cc(/C=C/c3ccc(O)c(OC)c3)n(-c3cc(Cl)cc(Cl)c3)n2)ccc1O | > 200 |
| COc1cc(/C=C/c2cc(/C=C/c3ccc(O)c(OC)c3)n(-c3ccc(C)cc3)n2)ccc1O | > 200 |
| COc1cc(/C=C/c2cc(/C=C/c3ccc(O)c(OC)c3)n(CCO)n2)ccc1O | 65 |

Target: T2, Amyloid-beta precursor protein
Assay: Inhibition of amyloid beta 42 transfected in human H4 cells incubated for 20 to 24 hrs by LPECL assay
Assay type: cell-based

| Compound | IC50 [µM] |
| --- | --- |
| COc1cc(/C=C/c2cc(/C=C/c3ccc(O)c(OC)c3)n(Cc3ccccc3)n2)ccc1O | > 1 |
| COc1cc(/C=C/c2cc(/C=C/c3ccc(OCC(=O)O)c(OC)c3)on2)ccc1OCC(=O)O | > 1 |
| COc1cc(/C=C/c2cc(/C=C/c3ccc(O)c(OC)c3)n(-c3ccc(Cl)nn3)n2)ccc1O | > 1 |
| COc1cc(/C=C/c2cc(/C=C/c3ccc(O)c(OC)c3)n(-c3ccc([N+](=O)[O-])cc3)n2)ccc1O | > 1 |
| COc1cc(/C=C/c2cc(/C=C/c3ccc(OCC(=O)OC(C)(C)C)c(OC)c3)on2)ccc1OCC(=O)OC(C)(C)C | > 1 |
| COc1cc(/C=C/c2cc(/C=C/c3ccc(O)c(OC)c3)[nH]n2)ccc1O [CURCUMIN PYRAZOLE] | 0.476 |
| COc1cc(/C=C/c2cc(/C=C/c3ccc(O)c(OC)c3)n(-c3ccccc3)n2)ccc1O | > 1 |
| COc1cc(/C=C/c2cc(/C=C/c3ccc(O)c(OC)c3)n(-c3ccc(C(C)C)cc3)n2)ccc1O | > 1 |
| COc1cc(/C=C/c2cc(/C=C/c3ccc(O)c(OC)c3)n(-c3ccc(C)cc3)n2)ccc1O | > 1 |

Target: T1, Microtubule-associated protein tau
Assay: Inhibition of Tau (unknown origin) expressed in Escherichia coli BL21 (DE3) at 10 uM relative to control

| Compound | inhibition [%] |
| --- | --- |
| Cc1c(OCc2ccccc2)cccc1N1CCN(CCCNCc2ccccc2)CC1 | 64.5 |
| O=S(=O)(c1ccccc1)n1ccc2c(N3CCN(CCN4CCN(Cc5cccc6c5ccn6Cc5ccccc5)CC4)CC3)cccc21 | 54.6 |
| O=S(=O)(c1ccccc1)n1ccc2c(N3CCN(CCCCCCNC4CCN(Cc5ccccc5)CC4)CC3)cccc21 | 52.7 |
| Cc1c(OCc2ccccc2)cccc1N1CCN(CCCCCCCNc2c3c(nc4ccccc24)CCCC3)CC1 | 70.3 |
| Cc1c(OCc2ccccc2)cccc1N1CCN(CCNc2c3c(nc4ccccc24)CCCC3)CC1 | 58.6 |
| Cc1c(OCc2ccccc2)cccc1N1CCN(CCCCCCCCNc2c3c(nc4ccccc24)CCCC3)CC1 | 60.2 |
| Cc1c(OCc2ccccc2)cccc1N1CCN(CCCCCCNc2c3c(nc4ccccc24)CCCC3)CC1 | 64 |
| Cc1c(OCc2ccccc2)cccc1N1CCN(CCCCCCNCc2ccccc2)CC1 | 64.8 |
| Cc1c(OCc2ccccc2)cccc1N1CCN(CCNC2CCN(Cc3ccccc3)CC2)CC1 | 57.3 |
| Cc1c(OCc2ccccc2)cccc1N1CCN(CCCCNC2CCN(Cc3ccccc3)CC2)CC1 | 62.8 |
| Cc1c(OCc2ccccc2)cccc1N1CCN(CCCNC2CCN(Cc3ccccc3)CC2)CC1 | 60.2 |
| c1ccc(Cn2ccc3c(N4CCN(CCCCNc5c6c(nc7ccccc57)CCCC6)CC4)cccc32)cc1 | 62.9 |

Test system: not listed separately
Assay: Inhibition of amyloid beta 38 secretion transfected in human H4 cells incubated for 20 to 24 hrs by LPECL assay
Assay type: cell-based

| Compound | IC50 [µM] |
| --- | --- |
| COc1cc(/C=C/c2cc(/C=C/c3ccc(O)c(OC)c3)on2)ccc1O | 6.1 |
| COc1cc(/C=C/c2cc(/C=C/c3ccc(O)c(OC)c3)n(Cc3ccccc3)n2)ccc1O | 7.7 |
| COc1cc(/C=C/c2cc(/C=C/c3ccc(OCC(=O)O)c(OC)c3)on2)ccc1OCC(=O)O | > 40 |
| COc1cc(/C=C/c2cc(/C=C/c3ccc(O)c(OC)c3)n(-c3ccc(Cl)nn3)n2)ccc1O | 3.4 |
| COc1cc(/C=C/c2cc(/C=C/c3ccc(O)c(OC)c3)n(-c3ccc([N+](=O)[O-])cc3)n2)ccc1O | 3.5 |
| COc1cc(/C=C/c2cc(/C=C/c3ccc(O)c(OC)c3)n(C)n2)ccc1O | 6.3 |
| COc1cc(/C=C/c2cc(/C=C/c3ccc(OCC(=O)OC(C)(C)C)c(OC)c3)on2)ccc1OCC(=O)OC(C)(C)C | > 40 |
| COc1cc(/C=C/c2cc(/C=C/c3ccc(O)c(OC)c3)[nH]n2)ccc1O [CURCUMIN PYRAZOLE] | 5.2 |
| COc1cc(/C=C/c2cc(/C=C/c3ccc(O)c(OC)c3)n(-c3ccccc3)n2)ccc1O | 6.3 |
| COc1cc(/C=C/c2cc(/C=C/c3ccc(O)c(OC)c3)n(-c3ccc(C(C)C)cc3)n2)ccc1O | 4.7 |
| COc1cc(/C=C/c2cc(/C=C/c3ccc(O)c(OC)c3)n(-c3cccc([N+](=O)[O-])c3)n2)ccc1O | 8.1 |
| COc1cc(/C=C/c2cc(/C=C/c3ccc(O)c(OC)c3)n(-c3cc(Cl)cc(Cl)c3)n2)ccc1O | 3.3 |
| COc1cc(/C=C/C(=O)CC(=O)/C=C/c2ccc(O)c(OC)c2)ccc1O [CURCUMIN] | > 20 |
| COc1cc(/C=C/c2cc(/C=C/c3ccc(O)c(OC)c3)n(-c3ccc(C)cc3)n2)ccc1O | 6 |
| COc1cc(/C=C/c2cc(/C=C/c3ccc(O)c(OC)c3)n(CCO)n2)ccc1O | 13.6 |

Target: T1, Microtubule-associated protein tau
Assay: Inhibition of tau aggregation (unknown origin) at 20 uM relative to control

| Compound | inhibition [%] |
| --- | --- |
| C[n+]1c2c(c(N)c3ccccc31)C(=O)/C(=C/c1cccs1)CC2 | 95.3 |
| C[n+]1c2c(c(N)c3ccccc31)C(=O)/C(=C/c1cccc(F)c1)CC2 | 86.3 |
| CN(C)c1ccc2nc3ccc(=[N+](C)C)cc-3sc2c1 | 80.1 |
| C[n+]1c2c(c(N)c3ccccc31)C(=O)/C(=C/c1cccc(Cl)c1)CC2 | 98.3 |
| Nc1c2c(nc3ccccc13)CC/C(=C\c1ccccc1)C2=O | 18.7 |
| C[n+]1c2c(c(N)c3ccccc31)C(=O)/C(=C/c1cccc([N+](=O)[O-])c1)CC2 | 98.2 |
| C[n+]1c2c(c(N)c3ccccc31)C(=O)/C(=C/c1cccc3ccccc13)CC2 | 102 |
| C[n+]1c2c(c(N)c3ccccc31)C(=O)/C(=C/c1ccccc1)CC2 | 71.2 |
